Data reported in article PMC10709440, “High-throughput ligand profile characterization in novel cell lines expressing seven heterologous insect olfactory receptors for the detection of volatile plant biomarkers” (Scientific Reports, 2023).

Columns and labels:
Drosophila OR71a = biological target: T1, Drosophila OR71a (Drosophila melanogaster, UniProt Q9VUK5); test: Calcium ion fluorescence (GCaMP6) assay, OR71a stable HEK293 cell line; type: cell-based; conditions: for activation at 1 µM / activation at 10 µM / activation at 100 µM: HEK293, read-out: OR71a response (VUAA1-normalized response); for Average response / OR71a response (VUAA1-normalized) at 1 μM / OR71a response (VUAA1-normalized) at 10 μM / OR71a response (VUAA1-normalized) at 100 μM: OR71a cell line; for Average response: VUAA1-normalized response, mean of biological replicates
T1 construct: expressed in transfected cells
T1 sequence (Q9VUK5 1-378): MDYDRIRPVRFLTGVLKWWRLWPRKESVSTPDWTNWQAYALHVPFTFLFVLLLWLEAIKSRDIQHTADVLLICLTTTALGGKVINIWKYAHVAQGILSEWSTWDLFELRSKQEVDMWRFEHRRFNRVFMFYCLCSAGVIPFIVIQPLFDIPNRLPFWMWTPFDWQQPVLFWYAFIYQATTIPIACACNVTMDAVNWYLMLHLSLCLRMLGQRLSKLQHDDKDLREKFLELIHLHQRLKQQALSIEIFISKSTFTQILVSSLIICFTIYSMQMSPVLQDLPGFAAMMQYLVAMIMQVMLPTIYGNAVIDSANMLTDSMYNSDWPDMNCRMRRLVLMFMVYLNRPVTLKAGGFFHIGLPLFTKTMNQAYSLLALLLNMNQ
T1 sequence (Q9VNB5 1-486 partner): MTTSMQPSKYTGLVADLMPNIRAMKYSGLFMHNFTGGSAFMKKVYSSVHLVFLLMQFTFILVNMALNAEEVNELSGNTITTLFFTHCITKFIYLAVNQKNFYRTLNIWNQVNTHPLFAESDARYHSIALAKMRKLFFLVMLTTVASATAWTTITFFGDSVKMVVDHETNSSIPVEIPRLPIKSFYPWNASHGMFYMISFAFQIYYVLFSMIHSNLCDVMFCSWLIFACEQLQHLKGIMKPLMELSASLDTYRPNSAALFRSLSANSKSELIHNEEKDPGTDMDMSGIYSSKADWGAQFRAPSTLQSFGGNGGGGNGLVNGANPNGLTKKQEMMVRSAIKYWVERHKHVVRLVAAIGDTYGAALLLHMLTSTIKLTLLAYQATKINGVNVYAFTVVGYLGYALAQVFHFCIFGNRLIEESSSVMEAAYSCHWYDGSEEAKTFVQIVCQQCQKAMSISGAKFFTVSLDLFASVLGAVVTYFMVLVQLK
How it was run: (§1)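 HEK293 lines stably expressing each Drosophila OR with GCaMP6, doxycycline-induced (1 μg/mL) 48 or 72 h. Fluorescence recorded 5 s baseline then 30 s after VOC injection at pH 7.3; ΔF=(FMAX−F0)/F0, normalized to 50 µM VUAA1 response per line, triplicate wells averaged; concentration series 0.01–100 μM.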

Drosophila OR47a = biological target: T2, Drosophila OR47a (Drosophila melanogaster, UniProt P81921); test: Calcium ion fluorescence (GCaMP6) assay, OR47a stable HEK293 cell line; type: cell-based; conditions: for activation at 1 µM / activation at 10 µM / activation at 100 µM: HEK293, read-out: OR47a response (VUAA1-normalized response); for Average response / OR47a response (VUAA1-normalized) at 1 μM / OR47a response (VUAA1-normalized) at 10 μM / OR47a response (VUAA1-normalized) at 100 μM: OR47a cell line; for Average response: mean of biological replicates; for OR47a Average response (VUAA1-normalized): 50 μM VUAA1 = 1
T2 construct: expressed in transfected cells
T2 sequence (P81921 1-385): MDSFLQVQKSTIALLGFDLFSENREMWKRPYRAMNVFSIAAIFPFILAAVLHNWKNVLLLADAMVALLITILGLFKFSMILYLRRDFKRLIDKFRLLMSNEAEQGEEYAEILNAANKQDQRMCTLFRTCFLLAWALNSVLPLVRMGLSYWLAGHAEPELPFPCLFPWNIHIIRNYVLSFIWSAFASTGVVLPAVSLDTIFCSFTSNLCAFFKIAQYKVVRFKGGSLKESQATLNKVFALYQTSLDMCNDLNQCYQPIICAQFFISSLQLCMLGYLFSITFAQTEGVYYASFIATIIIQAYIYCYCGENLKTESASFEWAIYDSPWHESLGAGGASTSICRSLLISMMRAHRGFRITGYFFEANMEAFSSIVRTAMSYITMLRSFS
T2 sequence (Q9VNB5 1-486 partner): T1 sequence (Q9VNB5 1-486 partner)
How it was run: as §1

[1] = concentration 1, normalized fluorescence change, values below 0.05 threshold given as 0
[2] = concentration 10, normalized fluorescence change, values below 0.05 threshold given as 0
[3] = concentration 100, normalized fluorescence change, values below 0.05 threshold given as 0
[4] = ligand concentration 1 (unit not given), 0.05 threshold, values below shown as 0
[5] = ligand concentration 10 (unit not given), 0.05 threshold, values below shown as 0
[6] = ligand concentration 100 (unit not given), 0.05 threshold, values below shown as 0
[7] = ligand concentration 1 (unit not given), threshold 0.05, below shown as 0
[8] = ligand concentration 10 (unit not given), threshold 0.05, below shown as 0
[9] = ligand concentration 100 (unit not given), threshold 0.05, below shown as 0

SMILES	activation at 1 µM (Drosophila OR71a)	activation at 10 µM (Drosophila OR71a)	activation at 100 µM (Drosophila OR71a)	Average response (Drosophila OR71a; cc. 1 µM)	Average response (Drosophila OR71a; cc. 10 µM)	Average response (Drosophila OR71a; cc. 100 µM)	activation at 1 µM (Drosophila OR47a)	activation at 10 µM (Drosophila OR47a)	activation at 100 µM (Drosophila OR47a)	Average response (Drosophila OR47a; odorant cc. 1 µM)	Average response (Drosophila OR47a; odorant cc. 10 µM)	Average response (Drosophila OR47a; odorant cc. 100 µM)	DF norm AVERAGE OR71a (Drosophila OR71a; [7])	DF norm AVERAGE OR71a (Drosophila OR71a; [8])	DF norm AVERAGE OR71a (Drosophila OR71a; [9])	DF norm AVERAGE OR47a (Drosophila OR47a; [7])	DF norm AVERAGE OR47a (Drosophila OR47a; [8])	DF norm AVERAGE OR47a (Drosophila OR47a; [9])	also measured
C=C1CC/C=C(\C)CC[C@@H]2[C@@H]1CC2(C)C [(-)-trans-caryophyllene]	0%	0%	0%	0.0273	0.00	0.00	0%	0%	0%	0.0166	0.0326	0.00							DF norm AVERAGE OR71a (Drosophila OR71a; [1]): 0; DF norm AVERAGE OR71a (Drosophila OR71a; [2]): 0; DF norm AVERAGE OR71a (Drosophila OR71a; [3]): 0; DF norm AVERAGE OR47a (Drosophila OR47a; [1]): 0; DF norm AVERAGE OR47a (Drosophila OR47a; [2]): 0; DF norm AVERAGE OR47a (Drosophila OR47a; [3]): 0
C=C(C)[C@H]1CC=C(C)CC1 [(R)-(+)-limonene]				0.0368	0.00	0.00				0.05	0.0529	0.00							OR71a response (VUAA1-normalized response) (Drosophila OR71a; VOC concentration 1 μM): 0.00; OR71a response (VUAA1-normalized response) (Drosophila OR71a; VOC concentration 10 μM): 0.00; OR71a response (VUAA1-normalized response) (Drosophila OR71a; VOC concentration 100 μM): 0.00; DF norm AVERAGE OR71a (Drosophila OR71a; [1]): 0; DF norm AVERAGE OR71a (Drosophila OR71a; [2]): 0; DF norm AVERAGE OR71a (Drosophila OR71a; [3]): 0; OR47a response (VUAA1-normalized response) (Drosophila OR47a; VOC concentration 1 μM): 0.00; OR47a response (VUAA1-normalized response) (Drosophila OR47a; VOC concentration 10 μM): 0.0529; OR47a response (VUAA1-normalized response) (Drosophila OR47a; VOC concentration 100 μM): 0.00; DF norm AVERAGE OR47a (Drosophila OR47a; [1]): 0; DF norm AVERAGE OR47a (Drosophila OR47a; [2]): 0.05286; DF norm AVERAGE OR47a (Drosophila OR47a; [3]): 0
CC1=CCC[C@@]2(C)[C@@H]3CC[C@]12CC3(C)C [(−)-α-neoclovene]				0.00	0.00	0.0221				0.00	0.00	0.018							OR71a response (VUAA1-normalized response) (Drosophila OR71a; VOC concentration 1 μM): 0.00; OR71a response (VUAA1-normalized response) (Drosophila OR71a; VOC concentration 10 μM): 0.00; OR71a response (VUAA1-normalized response) (Drosophila OR71a; VOC concentration 100 μM): 0.00; DF norm AVERAGE OR71a (Drosophila OR71a; [1]): 0; DF norm AVERAGE OR71a (Drosophila OR71a; [2]): 0; DF norm AVERAGE OR71a (Drosophila OR71a; [3]): 0; OR47a response (VUAA1-normalized response) (Drosophila OR47a; VOC concentration 1 μM): 0.00; OR47a response (VUAA1-normalized response) (Drosophila OR47a; VOC concentration 10 μM): 0.00; OR47a response (VUAA1-normalized response) (Drosophila OR47a; VOC concentration 100 μM): 0.00; DF norm AVERAGE OR47a (Drosophila OR47a; [1]): 0; DF norm AVERAGE OR47a (Drosophila OR47a; [2]): 0; DF norm AVERAGE OR47a (Drosophila OR47a; [3]): 0
CC/C=C\CCO [E-3-hexenol]																			OR71a response (VUAA1-normalized response) (Drosophila OR71a; VOC concentration 1 μM): 0.00; OR71a response (VUAA1-normalized response) (Drosophila OR71a; VOC concentration 10 μM): 0.00; OR71a response (VUAA1-normalized response) (Drosophila OR71a; VOC concentration 100 μM): 0.00; OR47a response (VUAA1-normalized response) (Drosophila OR47a; VOC concentration 1 μM): 0.06; OR47a response (VUAA1-normalized response) (Drosophila OR47a; VOC concentration 10 μM): 0.00; OR47a response (VUAA1-normalized response) (Drosophila OR47a; VOC concentration 100 μM): 0.14
CC/C=C\CCO [Z3-hexenol]				0.00	0.0174	0.00				0.0266	0.0571	0.10							DF norm AVERAGE OR71a (Drosophila OR71a; [4]): 0; DF norm AVERAGE OR71a (Drosophila OR71a; [5]): 0; DF norm AVERAGE OR71a (Drosophila OR71a; [6]): 0; OR47a Average response (VUAA1-normalized) (Drosophila OR47a; 1 μM VOC): 0.03; OR47a Average response (VUAA1-normalized) (Drosophila OR47a; 10 μM VOC): 0.06; OR47a Average response (VUAA1-normalized) (Drosophila OR47a; 100 μM VOC): 0.10; DF norm AVERAGE OR47a (Drosophila OR47a; [4]): 0; DF norm AVERAGE OR47a (Drosophila OR47a; [5]): 0.0571; DF norm AVERAGE OR47a (Drosophila OR47a; [6]): 0.1005
CC/C=C\CCO [Z-3-hexenol]																			OR71a response (VUAA1-normalized) at 1 μM (Drosophila OR71a; VOC concentration 1 μM): 0.00; OR71a response (VUAA1-normalized) at 10 μM (Drosophila OR71a; VOC concentration 10 μM): 0.00; OR71a response (VUAA1-normalized) at 100 μM (Drosophila OR71a; VOC concentration 100 μM): 0.00; OR47a response (VUAA1-normalized) at 1 μM (Drosophila OR47a; VOC concentration 1 μM): 0.00; OR47a response (VUAA1-normalized) at 10 μM (Drosophila OR47a; VOC concentration 10 μM): 0.0571; OR47a response (VUAA1-normalized) at 100 μM (Drosophila OR47a; VOC concentration 100 μM): 0.10
CC/C=C\CCOC(C)=O [Z-3-hexenyl acetate]																			OR71a response (VUAA1-normalized) at 1 μM (Drosophila OR71a; VOC concentration 1 μM): 0.00; OR71a response (VUAA1-normalized) at 10 μM (Drosophila OR71a; VOC concentration 10 μM): 0.00; OR71a response (VUAA1-normalized) at 100 μM (Drosophila OR71a; VOC concentration 100 μM): 0.00; OR47a response (VUAA1-normalized) at 1 μM (Drosophila OR47a; VOC concentration 1 μM): 0.35; OR47a response (VUAA1-normalized) at 10 μM (Drosophila OR47a; VOC concentration 10 μM): 0.67; OR47a response (VUAA1-normalized) at 100 μM (Drosophila OR47a; VOC concentration 100 μM): 0.76
CC(=O)c1ccccc1 [acetophenone]	0%	0%	0%	0.00	0.00	0.00	0%	0%	0%	0.0171	0.00	0.0243	0	0	0	0	0	0	
CC1=CCC2CC1C2(C)C (stereo not drawn) [alpha-pinene]	0%	0%	0%	0.0368	0.00	0.00	0%	0%	0%	0.04	0.00	0.0468	0	0	0	0	0	0	
CC1=CC[C@@H](C(C)(C)O)CC1 [alpha-terpineol]	0%	0%	0%	0.00	0.00	0.04	0%	0%	0%	0.00	0.00	0.00	0	0	0	0	0	0	
O=Cc1ccccc1 [benzaldehyde]	0%	0%	0%	0.03	0.00	0.00	0%	0%	0%	0.03	0.00	0.00	0	0	0	0	0	0	
